From patent US20200246365A1, “COMPOUNDS, PHARMACEUTICAL COMPOSITIONS AND USE THEREOF AS INHIBITORS OF RAN GTPASE” (THE ROYAL INSTITUTION FOR THE ADVANCEMENT OF LEARNING / …, priority 2017, published 2020)

Experiments:
TOV112D cells [1] = experiment: IncuCyte cell proliferation assay, TOV112D; format: cell-based, human; settings: for cell growth of TOV112D (new M36 analogs screen): 40 μM
Protocol: (§1) The human EOC cell lines used (TOV81D, TOV112D, OV90, TOV21G, OV866(2), TOV1369(R), OV1369(R2), TOV1946, OV1946, TOV2295(R), OV4485) were derived in our laboratory from patients' tumors (TOV) or ascites (OV). All EOC cell lines were maintained in a low oxygen condition of 7% O2 and 5% CO2 and grown in OSE medium (Wisent, Montreal, QC) supplemented with 10% FBS (Wisent), 0.5 μg/mL amphotericin B (Wisent) and 50 μg/mL gentamicin (Life Technologies Inc., Burlington, ON). The human retinal epithelial cell line ARPE-19 was purchased from American Type Culture Collection (ATCC, Manassas, Va.) and maintained in DMEM-F12 (Wisent) supplemented with 10% FBS (Wisent), 0.5 μg/mL amphotericin B (Wisent) and 50 μg/mL gentamicin (Life Technologies Inc.).
(§2) Cells (2,000 cells/well) were plated in a 96-well plate. The next day, compounds were added at the indicated concentrations. Following treatment, cell confluence was imaged by phase contrast using the IncuCyte live cell monitoring system (Essen BioScience, Ann Arbor, Mich.). Frames were captured at 2-hour intervals using a 10× objective. For Ran knock down experiments, cells were seeded in a 96-well plate (4,000 cells/well) directly after transfection. Cell confluence monitoring started the next day as described above.
(§3) Small molecules inhibitors of Ran were dissolved in 100% dimethyl sulfoxide (DMSO) and then further diluted in complete culture media for in vitro experiments. Drugs were added 24 hours after seeding.

TOV112D cells [2] = experiment: Clonogenic survival assay, TOV112D; format: cell-based, human; settings: for IC50: Homo sapiens, read-out: IC50 value for the TOV112D cell line by clonogenic assay; for IC50 value for the TOV112D cell line by clonogenic assay / IC50: TOV112D
Protocol: as §1
(§4) Clonogenic assays were performed as previously described. Colonies were counted under a stereo microscope and reported as percent of control. IC50 values were determined using Graph Pad Prism 5 software (GraphPad Software Inc., San Diego, Calif.). Each experiment was performed in duplicate and repeated three times. Sensitivity of the cell lines to small molecules inhibitors of Ran was assessed using a concentration range of 0-50 μM.
as §3

ARPE-19 cells [3] = experiment: IncuCyte cell proliferation assay, ARPE-19; format: cell-based, human; settings: for cell growth of ARPE-19 (new M36 analogs screen): 40 μM; for effect on normal ARPE-19 cells at low concentrations: 0.5 to 2.5 μM
Protocol: as §1, §2, §3

Ran-GTP [4] = target: T1, Ran-GTP (Homo sapiens, UniProt P62826); experiment: Ran activation (Ran-GTP pull-down) assay in TOV112D cells; format: cell-based; settings: 1 hour treatment, vs DMSO
Protocol: Cells were seeded onto 6-well tissue culture plates in such a way that cell confluence reaches approximately 70% the day of experiment. The day of experiment cells were treated for 1 hour with the indicated compounds prior to protein extraction and quantification. Assays were performed using the Ran activation assay kit (Cell Biolabs). Briefly, 400 μg of lysates were incubated for one hour at 4° C. with agarose beads conjugated to RANBP1, which specifically binds Ran-GTP. Beads were pelleted, washed, and re-suspended in SDS-PAGE buffer, followed by immunoblotting with an anti-Ran antibody.

ARPE-19 cells [5] = experiment: Clonogenic survival assay, ARPE-19; format: cell-based, human; settings: for effect on normal ARPE-19 cell line in detailed clonogenic assay: different concentrations
Protocol: as §1, §4, §3

[6] = target: T2, recombinant human Ran protein (Homo sapiens, UniProt P62826); experiment: Surface Plasmon Resonance (SPR) binding to immobilized Ran
T2 construct: Recombinant Ran protein was purchased from Sigma-Aldrich Inc. (R3152)
Protocol: SPR experiments were carried out using the Biacore 3000 system. Recombinant Ran protein was purchased from Sigma-Aldrich Inc. (R3152). The running buffer contained PBS, pH7.4, 1 mM GDP, 2 mM MgCl2 and 0.2% DMSO. The regeneration buffer contained 10 mM glycine (pH 2.5). Ran-GDP protein was immobilized onto a CM5 chip; samples of compounds in running buffer were injected at 30 μL/min for 10 minutes contact time followed by 5 minutes regeneration. Kd was calculated using the GraphPad Prism 5 software.

[7] = Pharmacokinetics in CD1 mice; format: in vivo; settings: 50 mg/kg
Protocol: For the pharmacokinetic studies, 6-week-old female CD1 mice (Charles River laboratories, Senneville, QC, Canada) received a single intravenous or intraperitoneal injection of M36 or QR20 (50 mg/kg), dissolved in DMSO 10%, Kolliphor® EL 10%, PEG-400 20% and PBS 60% (QR20 was also dissolved in DMSO 10%, PBS 90%). For each time point (15 minutes, 30 minutes, […], 1 hour, 2 hours and 6 hours), 3 mice were sacrificed and blood was collected by cardiac puncture. Thereafter, the plasma level of each compound was measured by mass spectrometry.

[8] = Tolerance test in NRG mice; format: in vivo; settings: daily i.p. 75 mg/kg for 15 days
Protocol: For the tolerance test, M36 and QR20 compounds were dissolved in DMSO 10%, Kolliphor® EL 10%, PEG-400 20% and PBS 60% and injected intraperitoneally into 6-week-old female Nod Rag Gamma (NRG) mice (The Jackson laboratory, Bar Harbor, Me.) daily at 75 mg/kg. During this study, mice (n=3) were monitored for survival and weight loss/gain.

[9] = test system: other aneuploid EOC cells; experiment: IncuCyte cell proliferation assay, other aneuploid EOC cell lines; format: cell-based, human; settings: 80 μM
Protocol: as §1, §2, §3

cleaved PARP = experiment: Apoptosis by PARP cleavage (Western blot); format: cell-based, human; settings: 96 hours after treatment
Protocol: Cells were lysed with RIPA buffer containing protease inhibitors. Whole cell lysates were run through a Bradford assay (Thermo Fisher Scientific) for protein quantification. Around 25-50 μg of proteins were separated onto 12.5% SDS-PAGE and transferred onto nitrocellulose membranes. The resultant blots were probed with Ran (1:10000, sc-271376 Santa Cruz Biotechnology, Dallas, Tex.), cleaved PARP (1:1000, #9541, Cell Signaling Technology Inc., Danvers, Mass.), GAPDH (1:2500, #2118, Cell Signaling Technology Inc.) or beta-actin (1:50000, ab6276, Abcam Inc., Toronto, ON, Canada) primary antibodies overnight at 4° C. then with peroxidase-conjugated secondary antibodies for 2 hours at room temperature. Proteins were detected using enhanced chemiluminescence (Thermo Fisher Scientific).

[10] = test system: breast cancer cell lines (MDA231, MDA468, HCC1806, ZR75, T47D, BT474, HCC1954); experiment: Cell proliferation, breast cancer cell lines; format: cell-based
Ran-GTP [11] = target: T1, Ran-GTP; experiment: Ran-GTP immunofluorescence in TOV112D cells; format: cell-based; settings: TOV112D cells vs DMSO-treated
Protocol: M36 and R28-treated and control TOV112D cells grown on coverslips were washed with 1×PBS, fixed in 4% paraformaldehyde and permeabilized with 0.25% Triton X-100 (Sigma-Aldrich Inc.). After blocking (4% BSA and 4% FBS in PBS), coverslips were incubated with the monoclonal anti-RanGTP antibody (26915, NewEastBioscences) diluted 1:100 in blocking buffer for 2 hours at room temperature. Subsequently, samples were incubated with Cy-5 secondary antibody (1:500, Life Technologies Inc.) for 1 hour and coverslips were mounted onto slides using Prolong® Gold anti-fade reagent with DAPI (Life Technologies Inc.). Samples were visualized under a Zeiss microscope (Zeiss observer Z1) with a 20× objective.

[12] = test system: prostate cancer cell lines (LNCaP, 22RV1, PC3, DU145); experiment: Cell proliferation, prostate cancer cell lines; format: cell-based

Fc1ccc(CNCc2cc(CNCc3ccc(F)cc3)cc(CNCc3ccc(F)cc3)c2)cc1 [M48]
cell growth of TOV112D (new M36 analogs screen) (TOV112D cells [1]; day 4): completely inhibited cell growth | IC50 value for the TOV112D cell line by clonogenic assay (TOV112D cells [2]): low IC50 values | cell growth of ARPE-19 (new M36 analogs screen) (ARPE-19 cells [3]; day 4): completely inhibited cell growth | effect on normal ARPE-19 cells at low concentrations (ARPE-19 cells [3]): also affected normal ARPE-19 cells

NC(=S)[C@@H]1C[C@H](COC(=O)c2ccccc2)[C@@H](OC(=O)c2ccccc2)[C@H]1OC(=O)c1ccccc1 [M26]
active Ran-GTP levels (pull-down) (Ran-GTP [4]): marked decrease in Ran-GTP levels | colony formation of TOV112D cells (TOV112D cells [2]; single dose 10 μM): specifically inhibited colony formation of EOC | colony formation of ARPE-19 cells (ARPE-19 cells [5]; single dose 10 μM): not normal cells | binding to the immobilized Ran protein ([6]; different compound concentrations, reached saturation): concentration-dependent binding

c1ccc(CN2CCN(C(c3ccccc3)C3CCCCC3)CC2)cc1 (stereo not shown) [QR20]
TOV112D cell proliferation, R20 salts (TOV112D cells [1]; 20, 40, 80 μM): exactly the same activity to inhibit TOV112D cell proliferation | pharmacokinetics profile based on AUC values [7]: good pharmacokinetics profiles | ARPE-19 cell proliferation, R20 salts (ARPE-19 cells [3]; 20, 40, 80 μM): without affecting the normal ARPE-19 cells | tolerance [8]: well tolerated | weight loss [8]: no weight loss

COc1ccc(CN2CCN(Cc3ccc(OC)cc3)CC2)cc1 [compound 1292]
active Ran-GTP levels (pull-down) (Ran-GTP [4]): concentration-dependent decrease in Ran-GTP levels | IC50 (TOV112D cells [2]): 15 ± 0.37 µM | cell proliferation of other aneuploid EOC cells [9]: inhibited cell proliferation | effect on normal ARPE-19 cell line in detailed clonogenic assay (ARPE-19 cells [5]): did not have any effect | apoptosis (cleaved PARP on Western blot) (cleaved PARP): induction of apoptosis

COc1ccc(CN2CCN(Cc3ccc(OC)c(N(C(=O)Nc4cccc(F)c4)C(=O)Nc4cccc(F)c4)c3)CC2)cc1 [R28]
proliferation of TOV112D cells (R20 analogs screen) (TOV112D cells [1]; 20, 40 and 80 μM, day 4): more efficient than compound R20 to inhibit proliferation of TOV112D cells | IC50 (TOV112D cells [2]): 2.99 ± 0.19 µM | effect on breast cancer cell lines [10]: effective in both cancer types | Ran-GTP levels by immunofluorescence (Ran-GTP [11]): very low levels of active Ran-GTP | effect on prostate cancer cell lines [12]: effective in both cancer types | proliferation of ARPE-19 cells (R20 analogs screen) (ARPE-19 cells [3]; 20, 40 and 80 μM, day 4): without affecting normal ARPE-19 cells

COc1ccc(CNCc2cc(CNCc3ccc(OC)cc3)cc(CNCc3ccc(OC)cc3)c2)cc1 [M52]
cell growth of TOV112D (new M36 analogs screen) (TOV112D cells [1]; day 4): completely inhibited cell growth | IC50 value for the TOV112D cell line by clonogenic assay (TOV112D cells [2]): low IC50 values | cell growth of ARPE-19 (new M36 analogs screen) (ARPE-19 cells [3]; day 4): completely inhibited cell growth | effect on normal ARPE-19 cells at low concentrations (ARPE-19 cells [3]): also affected normal ARPE-19 cells

COc1ccc(CN(C)Cc2cc(CN(C)Cc3ccc(OC)cc3)cc(CN(C)Cc3ccc(OC)cc3)c2)cc1 [M55]
cell growth of TOV112D (new M36 analogs screen) (TOV112D cells [1]; day 4): discriminative effect between normal ARPE-19 and aneuploid TOV112D cells | cell growth of TOV112D, detailed proliferation assay (TOV112D cells [1]; 5, 10, 20 μM): specifically inhibit cell growth of the TOV112D cells even at a low concentration of 5 μM | IC50 (TOV112D cells [2]): 4.16 µM

Oc1ccc(CCCCCCc2ccc(O)cc2)cc1 [V188]
IC50 (TOV112D cells [2]): 7.6 ± 0.32 µM | Kd ([6]; Ran-GDP immobilized on CM5 chip): 0.38 µM

c1ccc(CN2CCN(C(c3ccccc3)C3CCCCC3)CC2)cc1 (stereo not shown) [R20]
cell proliferation of TOV112D (1292 analogs screen) (TOV112D cells [1]; 80 μM, vs normal ARPE-19): greater efficacy in inhibiting cell proliferation | active Ran-GTP levels (pull-down) (Ran-GTP [4]): concentration-dependent decrease in Ran-GTP levels | IC50 (TOV112D cells [2]): 9.91 ± 0.36 µM | cell proliferation of other aneuploid EOC cells [9]: inhibited cell proliferation | effect on normal ARPE-19 cell line in detailed clonogenic assay (ARPE-19 cells [5]): no effect

c1ccc(CNCc2cc(CNCc3ccccc3)cc(CNCc3ccccc3)c2)cc1 [M51]
cell growth of TOV112D (new M36 analogs screen) (TOV112D cells [1]; day 4): completely inhibited cell growth | TOV112D cell growth at low concentrations (TOV112D cells [1]; 0.5, 1, 2.5 μM): inhibited TOV112D cell growth | IC50 (TOV112D cells [2]): ~0.66 µM | effect on breast cancer cell lines [10]: effective in one triple negative breast cancer cell line | cell growth of ARPE-19 (new M36 analogs screen) (ARPE-19 cells [3]; day 4): completely inhibited cell growth | effect on normal ARPE-19 cells at low concentrations (ARPE-19 cells [3]): did not affect normal cells

NC(=S)[C@H]1O[C@H](COCc2ccccc2F)[C@@H](OCc2ccccc2F)[C@H]1OCc1ccccc1F [M46]
active Ran-GTP levels (pull-down) (Ran-GTP [4]): weaker than that of M36 | IC50 (TOV112D cells [2]): 12.5 ± 0.36 µM
